Assay results as given in ChEMBL document CHEMBL3600314, “Discovery and characterization of a potent and selective EP4 receptor antagonist” (Bioorg Med Chem Lett, 2015).
Each block holds one molecule with its values, some of them ahead of it. The source made the active and inactive calls. The calls are words filed in the database; no cut-off is given here.

What was measured:
[1] = target: T1, Prostaglandin E2 receptor EP4 subtype (Homo sapiens, UniProt P35408); test: Displacement of [3H]-PGE2 from recombinant human EP4 receptor expressed in HEK293 cell membranes after 90 mins by liquid scintillation counting analysis
T1 sequence (P35408 whole entry): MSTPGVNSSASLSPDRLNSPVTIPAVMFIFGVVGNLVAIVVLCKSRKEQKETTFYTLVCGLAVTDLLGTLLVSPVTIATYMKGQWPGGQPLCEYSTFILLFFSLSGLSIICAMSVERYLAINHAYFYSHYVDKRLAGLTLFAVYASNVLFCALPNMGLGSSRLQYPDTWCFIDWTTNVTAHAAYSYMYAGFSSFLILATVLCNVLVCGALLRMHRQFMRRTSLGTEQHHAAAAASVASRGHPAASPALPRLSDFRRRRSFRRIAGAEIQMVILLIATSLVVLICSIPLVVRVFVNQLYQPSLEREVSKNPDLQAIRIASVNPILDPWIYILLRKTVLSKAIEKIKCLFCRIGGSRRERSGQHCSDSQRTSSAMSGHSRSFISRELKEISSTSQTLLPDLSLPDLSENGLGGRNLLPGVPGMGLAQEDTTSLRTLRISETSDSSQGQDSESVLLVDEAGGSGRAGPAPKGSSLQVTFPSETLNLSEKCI

[2] = target: T1, Prostaglandin E2 receptor EP4 subtype; test: Antagonist activity at EP4 receptor in LPS-stimulated human whole blood assessed as inhibition of PGE2-induced TNF-alpha reduction preincubated for 30 mins followed by PGE2 addition measured after 24 hrs by ELISA
[3] = target: T1, Prostaglandin E2 receptor EP4 subtype; test: Antagonist activity at recombinant human EP4 receptor expressed in HEK293 cells assessed as inhibition of PGE2-stimulated cAMP accumulation by scintillation proximity assay in presence of [125I]-cAMP; format: functional, cell-based
[4] = Solubility of the compound in FasSIF; format: physicochemical
Cytochrome P450 3A4 = Cytochrome P450 3A4 (Homo sapiens, UniProt P08684); test: Inhibition of CYP3A4 (unknown origin); format: ADME
Rattus norvegicus = species: Rattus norvegicus; test: Inhibition of rat chloride channel at 10 uM relative to control
[5] = Solubility of the compound in SGF; format: physicochemical
[6] = target: Voltage-gated inwardly rectifying potassium channel KCNH2 (Homo sapiens, UniProt Q12809); test: Displacement of [3H]-astemizole from human ERG up to 100 uM
[7] = target: Adenosine receptor A3 (Homo sapiens) (UniProt P0DMS8); test: Inhibition of human adenosine A3 receptor at 10 uM relative to control
[8] = target: Prostaglandin E synthase (Homo sapiens) (UniProt O14684); test: Inhibition of microsomal PGES-1 (unknown origin) up to 62.5 uM
[9] = target: Adrenergic receptor alpha-1 (Rattus norvegicus) (UniProt P15823+P23944+P43140); test: Inhibition of rat adrenergic alpha1 receptor at 10 uM relative to control
[10] = Clearance in Beagle dog at 10 mg/kg, po and 1 mg/kg, iv; format: ADME, organism-based, Canis lupus familiaris; conditions: in vivo
[11] = target: Prostaglandin E2 receptor EP1 subtype (Homo sapiens, UniProt P34995); test: Displacement of [3H]-PGE2 from human EP1 receptor by liquid scintillation counting analysis
Prostaglandin E2 receptor EP1 subtype, sequence (P34995 whole entry): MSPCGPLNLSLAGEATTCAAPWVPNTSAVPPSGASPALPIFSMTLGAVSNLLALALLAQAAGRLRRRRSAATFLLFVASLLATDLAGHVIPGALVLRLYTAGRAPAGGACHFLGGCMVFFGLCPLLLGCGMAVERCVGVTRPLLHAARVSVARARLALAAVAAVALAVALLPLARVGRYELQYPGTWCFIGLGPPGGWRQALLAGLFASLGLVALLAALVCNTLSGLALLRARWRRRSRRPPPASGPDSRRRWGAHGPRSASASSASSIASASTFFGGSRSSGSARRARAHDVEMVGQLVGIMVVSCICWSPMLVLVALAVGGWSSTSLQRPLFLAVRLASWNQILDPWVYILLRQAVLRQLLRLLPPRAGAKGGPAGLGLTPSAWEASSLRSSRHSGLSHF

[12] = target: 5-hydroxytryptamine receptor 2B (Homo sapiens) (UniProt P41595); test: Inhibition of human 5-HT2B receptor at 10 uM relative to control
5-hydroxytryptamine receptor 2B (Homo sapiens), sequence (P41595 whole entry): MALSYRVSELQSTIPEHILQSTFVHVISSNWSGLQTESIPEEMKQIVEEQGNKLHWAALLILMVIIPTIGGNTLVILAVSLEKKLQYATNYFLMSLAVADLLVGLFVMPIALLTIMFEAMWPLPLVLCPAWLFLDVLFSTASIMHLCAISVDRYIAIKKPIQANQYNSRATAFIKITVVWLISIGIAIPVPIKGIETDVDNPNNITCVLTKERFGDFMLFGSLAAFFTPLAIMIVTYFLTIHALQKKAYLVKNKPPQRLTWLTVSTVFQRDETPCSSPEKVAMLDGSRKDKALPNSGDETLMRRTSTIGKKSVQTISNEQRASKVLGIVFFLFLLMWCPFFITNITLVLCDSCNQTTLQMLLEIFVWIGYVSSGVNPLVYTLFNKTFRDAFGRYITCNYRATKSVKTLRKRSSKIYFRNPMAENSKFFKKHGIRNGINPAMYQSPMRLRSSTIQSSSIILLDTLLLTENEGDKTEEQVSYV

[13] = Oral bioavailability in Beagle dog at 10 mg/kg; format: ADME, organism-based, Canis lupus familiaris; conditions: in vivo
Cytochrome P450 1A2 = Cytochrome P450 1A2 (Homo sapiens, UniProt P05177); test: Inhibition of CYP1A2 (unknown origin); format: ADME
[14] = target: Muscarinic acetylcholine receptor M3 (Homo sapiens) (UniProt P20309); test: Inhibition of human muscarinic M3 receptor at 10 uM relative to control
[15] = Solubility of the compound in FedSIF; format: physicochemical; conditions: FeSSIF
[16] = target: Muscarinic acetylcholine receptor M2 (Homo sapiens) (UniProt P08172); test: Inhibition of human muscarinic M2 receptor at 10 uM relative to control
[17] = target: Histamine H1 receptor (Homo sapiens) (UniProt P35367); test: Inhibition of human histamine H1 receptor at 10 uM relative to control
[18] = target: T2, Prostaglandin E2 receptor EP2 subtype (Homo sapiens, UniProt P43116); test: Antagonist activity at recombinant human EP2 receptor expressed in CHO cells assessed as inhibition of PGE2-stimulated cAMP accumulation at 1 uM by scintillation proximity assay in presence of [125I]-cAMP; format: functional, cell-based
T2 sequence (P43116 whole entry): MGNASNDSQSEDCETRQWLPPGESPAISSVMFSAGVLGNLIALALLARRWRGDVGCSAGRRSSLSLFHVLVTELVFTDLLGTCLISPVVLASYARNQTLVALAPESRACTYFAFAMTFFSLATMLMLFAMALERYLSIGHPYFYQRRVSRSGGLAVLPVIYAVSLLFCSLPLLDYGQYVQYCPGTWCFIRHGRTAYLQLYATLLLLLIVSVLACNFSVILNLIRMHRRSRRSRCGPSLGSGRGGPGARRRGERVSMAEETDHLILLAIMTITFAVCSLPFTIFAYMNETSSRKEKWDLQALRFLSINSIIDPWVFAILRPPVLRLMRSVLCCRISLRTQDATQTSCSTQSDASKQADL

[19] = target: Beta-2 adrenergic receptor (Homo sapiens) (UniProt P07550); test: Inhibition of human adrenergic beta2 receptor at 10 uM relative to control
Cytochrome P450 2D6 = Cytochrome P450 2D6 (Homo sapiens, UniProt P10635); test: Inhibition of CYP2D6 (unknown origin); format: ADME
Cytochrome P450 2D6, sequence (P10635 whole entry): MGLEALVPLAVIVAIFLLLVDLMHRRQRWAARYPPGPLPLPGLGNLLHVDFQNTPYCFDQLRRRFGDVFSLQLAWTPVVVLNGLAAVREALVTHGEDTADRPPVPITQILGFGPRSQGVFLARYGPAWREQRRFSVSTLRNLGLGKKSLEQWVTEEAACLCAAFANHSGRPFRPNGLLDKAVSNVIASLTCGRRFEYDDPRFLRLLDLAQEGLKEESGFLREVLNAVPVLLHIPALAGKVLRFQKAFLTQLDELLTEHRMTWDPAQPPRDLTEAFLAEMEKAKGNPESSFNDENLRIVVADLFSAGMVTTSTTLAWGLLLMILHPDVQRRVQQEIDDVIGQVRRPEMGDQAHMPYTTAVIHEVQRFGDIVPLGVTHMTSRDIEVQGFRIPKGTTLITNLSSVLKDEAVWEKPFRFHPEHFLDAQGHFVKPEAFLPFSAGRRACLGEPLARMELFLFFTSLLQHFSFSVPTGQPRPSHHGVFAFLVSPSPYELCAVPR

[20] = target: Sodium-dependent noradrenaline transporter (Homo sapiens) (UniProt P23975); test: Inhibition of human NE transporter at 10 uM relative to control
[21] = Plasma concentration in Beagle dog at 10 mg/kg, po measured over 12 hrs; format: ADME, organism-based, Canis lupus familiaris
[22] = target: Mu-type opioid receptor (Homo sapiens) (UniProt P35372); test: Inhibition of human mu opioid receptor at 10 uM relative to control
[23] = Plasma concentration in Beagle dog at 10 mg/kg, po measured over 24 hrs; format: ADME, organism-based, Canis lupus familiaris
Cytochrome P450 2C19 = Cytochrome P450 2C19 (Homo sapiens, UniProt P33261); test: Inhibition of CYP2C19 (unknown origin); format: ADME
[24] = target: T2, Prostaglandin E2 receptor EP2 subtype; test: Displacement of [3H]-PGE2 from human EP2 receptor by liquid scintillation counting analysis
[25] = target: D(1A) dopamine receptor (Homo sapiens) (UniProt P21728); test: Inhibition of human dopamine D1 receptor at 10 uM relative to control
D(1A) dopamine receptor (Homo sapiens), sequence (P21728 whole entry): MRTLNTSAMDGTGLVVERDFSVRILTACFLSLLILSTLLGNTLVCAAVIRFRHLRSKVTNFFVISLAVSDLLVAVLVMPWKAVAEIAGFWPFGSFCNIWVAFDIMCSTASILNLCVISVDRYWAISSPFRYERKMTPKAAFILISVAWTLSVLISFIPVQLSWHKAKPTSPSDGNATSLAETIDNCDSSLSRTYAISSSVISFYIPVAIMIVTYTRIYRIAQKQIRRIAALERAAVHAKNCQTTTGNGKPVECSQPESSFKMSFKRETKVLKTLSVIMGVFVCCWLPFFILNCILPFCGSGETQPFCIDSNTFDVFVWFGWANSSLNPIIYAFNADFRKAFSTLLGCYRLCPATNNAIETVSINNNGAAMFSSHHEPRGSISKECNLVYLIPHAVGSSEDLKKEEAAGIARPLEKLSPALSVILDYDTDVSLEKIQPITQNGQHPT

[26] = target: Adrenergic receptor alpha-2 (Rattus norvegicus) (UniProt P22086+P19328+P22909); test: Inhibition of rat adrenergic alpha2 receptor at 10 uM relative to control
[27] = target: T2, Prostaglandin E2 receptor EP2 subtype; test: Agonist activity at recombinant human EP2 receptor expressed in CHO cells assessed as induction of cAMP accumulation at 1 uM after 15 mins by scintillation proximity assay in presence of [125I]-cAMP; format: functional, cell-based
[28] = target: D(2) dopamine receptor (Homo sapiens) (UniProt P14416); test: Inhibition of human dopamine D2S receptor at 10 uM relative to control
D(2) dopamine receptor (Homo sapiens), sequence (P14416 whole entry): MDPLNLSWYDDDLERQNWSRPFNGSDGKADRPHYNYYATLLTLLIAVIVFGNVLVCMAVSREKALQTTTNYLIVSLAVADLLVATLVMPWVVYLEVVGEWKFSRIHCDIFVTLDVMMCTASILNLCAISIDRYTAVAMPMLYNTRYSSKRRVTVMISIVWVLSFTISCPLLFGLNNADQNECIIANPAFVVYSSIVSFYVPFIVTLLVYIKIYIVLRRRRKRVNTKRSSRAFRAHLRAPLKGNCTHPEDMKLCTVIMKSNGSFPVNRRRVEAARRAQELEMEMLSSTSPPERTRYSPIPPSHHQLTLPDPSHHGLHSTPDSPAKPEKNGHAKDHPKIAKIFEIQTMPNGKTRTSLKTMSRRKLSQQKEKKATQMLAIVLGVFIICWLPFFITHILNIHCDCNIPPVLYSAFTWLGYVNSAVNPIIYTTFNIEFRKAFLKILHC

Cytochrome P450 2B6 = Cytochrome P450 2B6 (Homo sapiens, UniProt P20813); test: Inhibition of CYP2B6 (unknown origin); format: ADME
Cytochrome P450 2B6, sequence (P20813 whole entry): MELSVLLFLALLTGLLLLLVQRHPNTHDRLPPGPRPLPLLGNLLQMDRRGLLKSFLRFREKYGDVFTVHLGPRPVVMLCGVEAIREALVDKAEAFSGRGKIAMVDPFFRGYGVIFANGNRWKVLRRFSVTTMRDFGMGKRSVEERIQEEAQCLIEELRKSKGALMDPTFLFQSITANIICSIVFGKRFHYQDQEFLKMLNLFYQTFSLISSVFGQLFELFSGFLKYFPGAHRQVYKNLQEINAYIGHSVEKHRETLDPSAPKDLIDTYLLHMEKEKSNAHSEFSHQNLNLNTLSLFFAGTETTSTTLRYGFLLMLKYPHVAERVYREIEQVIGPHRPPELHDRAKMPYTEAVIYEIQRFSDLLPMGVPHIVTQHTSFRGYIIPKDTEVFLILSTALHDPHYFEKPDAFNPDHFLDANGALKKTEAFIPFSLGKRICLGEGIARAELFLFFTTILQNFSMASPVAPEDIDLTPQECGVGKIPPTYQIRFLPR

[29] = Tmax in Beagle dog at 10 mg/kg, po; format: ADME, organism-based, Canis lupus familiaris; conditions: in vivo
[30] = target: L-type calcium channel dihydropyridine binding site (Homo sapiens, UniProt O60840+Q01668+Q13698+Q13936); test: Inhibition of L-type calcium channel dihydropyridine binding site (unknown origin) at 10 uM relative to control; format: protein assay
[31] = target: L-type calcium channel diltiazem binding site (Homo sapiens, UniProt O60840+Q01668+Q13698+Q13936); test: Inhibition of L-type calcium channel diltiazem binding site (unknown origin) at 10 uM relative to control; format: protein assay
Cytochrome P450 2C9 = Cytochrome P450 2C9 (Homo sapiens, UniProt P11712); test: Inhibition of CYP2C9 (unknown origin); format: ADME
Cytochrome P450 2C9, sequence (P11712 whole entry): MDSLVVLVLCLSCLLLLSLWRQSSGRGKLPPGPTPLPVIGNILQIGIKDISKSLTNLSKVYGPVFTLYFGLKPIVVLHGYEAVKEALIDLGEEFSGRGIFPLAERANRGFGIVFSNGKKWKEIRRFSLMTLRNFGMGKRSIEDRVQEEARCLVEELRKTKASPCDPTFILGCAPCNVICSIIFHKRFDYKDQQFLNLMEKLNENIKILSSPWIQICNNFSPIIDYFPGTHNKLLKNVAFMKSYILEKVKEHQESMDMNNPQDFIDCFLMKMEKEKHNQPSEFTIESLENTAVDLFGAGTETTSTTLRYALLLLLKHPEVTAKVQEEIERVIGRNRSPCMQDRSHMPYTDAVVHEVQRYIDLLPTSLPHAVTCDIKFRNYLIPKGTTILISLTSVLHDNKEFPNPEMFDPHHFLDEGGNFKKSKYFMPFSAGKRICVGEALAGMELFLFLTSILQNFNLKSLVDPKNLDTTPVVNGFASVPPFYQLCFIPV

[32] = target: L-type calcium channel verapamil binding site (Homo sapiens, UniProt O60840+Q01668+Q13698+Q13936); test: Inhibition of L-type calcium channel verapamil binding site (unknown origin) at 10 uM relative to control; format: protein assay
[33] = target: Beta-1 adrenergic receptor (Homo sapiens) (UniProt P08588); test: Inhibition of human adrenergic beta1 receptor at 10 uM relative to control
Beta-1 adrenergic receptor (Homo sapiens), sequence (P08588 whole entry, looked up): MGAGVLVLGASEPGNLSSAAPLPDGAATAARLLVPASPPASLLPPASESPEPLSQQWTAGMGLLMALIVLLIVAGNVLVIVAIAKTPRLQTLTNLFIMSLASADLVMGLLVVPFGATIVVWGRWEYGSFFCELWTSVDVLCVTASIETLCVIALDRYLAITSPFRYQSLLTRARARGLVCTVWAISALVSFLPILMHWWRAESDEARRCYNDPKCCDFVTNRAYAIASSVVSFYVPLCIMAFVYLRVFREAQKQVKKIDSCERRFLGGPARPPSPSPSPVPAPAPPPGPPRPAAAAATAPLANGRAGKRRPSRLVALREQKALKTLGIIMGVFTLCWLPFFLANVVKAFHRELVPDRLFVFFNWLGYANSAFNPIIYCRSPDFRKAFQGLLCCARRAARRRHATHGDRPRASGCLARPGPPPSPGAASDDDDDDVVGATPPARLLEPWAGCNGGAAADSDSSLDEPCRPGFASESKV

Cytochrome P450 2C8 = Cytochrome P450 2C8 (Homo sapiens, UniProt P10632); test: Inhibition of CYP2C8 (unknown origin); format: ADME
[34] = target: Prostaglandin E2 receptor EP3 subtype (Homo sapiens, UniProt P43115); test: Displacement of [3H]-PGE2 from human EP3 receptor by liquid scintillation counting analysis
Prostaglandin E2 receptor EP3 subtype, sequence (P43115 whole entry): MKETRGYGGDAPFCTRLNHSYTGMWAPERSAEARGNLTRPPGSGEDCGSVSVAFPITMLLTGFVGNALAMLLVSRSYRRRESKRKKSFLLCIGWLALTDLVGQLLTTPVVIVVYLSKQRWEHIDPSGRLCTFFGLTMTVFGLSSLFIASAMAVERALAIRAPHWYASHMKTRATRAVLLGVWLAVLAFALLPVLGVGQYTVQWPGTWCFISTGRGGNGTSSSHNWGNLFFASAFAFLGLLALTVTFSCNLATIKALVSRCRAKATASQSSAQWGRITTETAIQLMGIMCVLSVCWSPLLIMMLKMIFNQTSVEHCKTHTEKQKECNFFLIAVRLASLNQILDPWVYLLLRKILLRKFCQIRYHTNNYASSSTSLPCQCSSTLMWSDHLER

IC50 [1]: 689 nM
IC50 [2]: 1610 nM
SMILES: CCc1nc2c(C)nc(C)cc2n1-c1ccc(CCNC(=O)NS(=O)(=O)c2ccc(C)cc2)cc1 [GRAPIPRANT]

IC50 [1]: 621 nM
Ki [1]: 372 nM
IC50 [2]: 1210 nM
IC50 [3]: 35.8 nM
SMILES: C[C@H](NC(=O)[C@H]1CCCCN1CCOc1ccc(C#N)cc1)c1ccc(C(=O)O)cc1

IC50 [1]: 77.8 nM
Ki [1]: 44.8 nM
IC50 [2]: 586 nM
IC50 [3]: 5.42 nM
SMILES: O=C(O)c1ccc(C2(NC(=O)[C@H]3CCCCN3CCOc3ccccc3)CC2)cc1

IC50 [1]: 232 nM
Ki [1]: 129 nM
IC50 [2]: 291 nM
IC50 [3]: 14.4 nM
SMILES: CC[C@H](NC(=O)[C@H]1CCCCN1CCOc1ccccc1)c1ccc(C(=O)O)cc1

IC50 [1]: 71.8 nM
Ki [1]: 40.4 nM
IC50 [2]: 121 nM
IC50 [3]: 2.87 nM
SMILES: C[C@H](NC(=O)[C@H]1CCCCN1CCOc1ccc(F)cc1)c1ccc(C(=O)O)cc1

IC50 [1]: 203 nM
Ki [1]: 126 nM
IC50 [2]: 899 nM
IC50 [3]: 18.1 nM
SMILES: O=C(O)c1ccc(CNC(=O)[C@H]2CCCCN2CCOc2ccccc2)cc1

solubility [4]: > 2000 µg/mL
IC50 (Cytochrome P450 3A4): > 10000 nM
inhibition (Rattus norvegicus): 6%
solubility [5]: 1320 µg/mL
inhibition [7]: -9%
inhibition [8]: inactive
inhibition [9]: 1%
clearance [10]: 5.2 mL/min/kg
IC50 [11]: > 25000 nM
Ki [11]: > 17500 nM
inhibition [12]: 10%
bioavailability [13]: 81%
IC50 (Cytochrome P450 1A2): > 10000 nM
inhibition [14]: 7%
solubility [15]: > 2000 µg/mL
inhibition [16]: -1%
inhibition [17]: 7%
inhibition [18]: Active
inhibition [19]: 2%
IC50 (Cytochrome P450 2D6): > 10000 nM
inhibition [20]: 7%
concentration at 12 h [21]: > 1000 nM
inhibition [22]: 1%
concentration at 24 h [23]: > 100 nM
IC50 (Cytochrome P450 2C19): > 10000 nM
IC50 [24]: 1630 nM
inhibition [25]: -6%
inhibition [26]: -6%
Activity [27]: Active
inhibition [28]: 13%
IC50 (Cytochrome P450 2B6): > 10000 nM
Tmax [29]: 15 min
inhibition at 10 µM [30]: -60%
inhibition at 10 µM [31]: -7%
IC50 (Cytochrome P450 2C9): > 10000 nM
inhibition at 10 µM [32]: 5%
inhibition [33]: 6%
IC50 (Cytochrome P450 2C8): > 10000 nM
IC50 [34]: > 25000 nM
Ki [34]: > 12700 nM
SMILES: C[C@H](NC(=O)[C@H]1CCCCN1CCOc1ccccc1)c1ccc(C(=O)O)cc1.Cl
inhibition (INH) [6]: Not Active
